Consider five molecules from ChEMBL document CHEMBL1135270, “New highly active taxoids from 9 beta-dihydrobaccatin-9,10-acetals” (2002).

Molecules are shown by their SMILES. Values after ≈ are worked out from the molar mass of the structure shown.

Experiment [1] concerns PC-6. Put plainly: Growth inhibition of 50% of human small cell lung cancer (PC-6) cell line in MTT assay. The format is functional. On the technique in general: Formazan colour is commonly taken as a measure of viable cells.
The subject of experiment [2] is PC-6. Kind of experiment: Growth inhibition of 50% of vincristine-resistant cell line expressing P-glycoprotein (PC-6/VCR) in MTT assay. It is filed as functional. Conditions: Homo sapiens.

With `C=CC1O[C@@H]2C3=C(C)[C@@H](OC(=O)[C@H](O)[C@@H](NC(=O)OC(C)(C)C)c4ccco4)C[C@@](O)([C@@H](OC(=O)c4ccccc4)[C@@H]4[C@]5(OC(C)=O)CO[C@@H]5C[C@H](O)[C@@]4(C)[C@@H]2O1)C3(C)C` (stereo not given in full), the concentration for 50% growth inhibition (GI50) came to 0.743 ng/mL (≈ 0.887 nM) in the experiment with PC-6 [1] and 1.27 ng/mL (≈ 1.52 nM) in the experiment with PC-6 [2].

In the case of `COc1ccc(C2O[C@@H]3C4=C(C)[C@@H](OC(=O)[C@H](O)[C@@H](NC(=O)OC(C)(C)C)c5ccco5)C[C@@](O)([C@@H](OC(=O)c5ccccc5)[C@@H]5[C@]6(OC(C)=O)CO[C@@H]6C[C@H](O)[C@@]5(C)[C@@H]3O2)C4(C)C)cc1` (stereo not given in full), the results for the concentration for 50% growth inhibition (GI50) with PC-6 [1] and in the experiment with PC-6 [2] were 6.26 ng/mL (≈ 6.82 nM) and 9.25 ng/mL (≈ 10.1 nM), respectively.

On to `CC(=O)O[C@@]12CO[C@@H]1C[C@H](O)[C@@]1(C)[C@@H]3OC(C)(C)O[C@@H]3C3=C(C)[C@@H](OC(=O)[C@H](O)[C@@H](NC(=O)OC(C)(C)C)c4ccco4)C[C@@](O)([C@@H](OC(=O)c4ccccc4)[C@H]21)C3(C)C`, for which the figures for the GI50 in the experiment on PC-6 [1] and with PC-6 [2] were 0.331 ng/mL (≈ 0.394 nM) and 1.88 ng/mL (≈ 2.24 nM), respectively.

Take `CC(=O)O[C@@]12CO[C@@H]1C[C@H](O)[C@@]1(C)[C@H](O)[C@H](O)C3=C(C)[C@@H](OC(=O)[C@H](O)[C@@H](NC(=O)OC(C)(C)C)c4ccco4)C[C@@](O)([C@@H](OC(=O)c4ccccc4)[C@H]21)C3(C)C`: the GI50 in the experiment with PC-6 [1] is 21 ng/mL (≈ 26.3 nM); in the experiment with PC-6 [2], 422 ng/mL (≈ 528 nM).

With `C=CC1O[C@@H]2C3=C(C)[C@@H](OC(=O)[C@H](O)[C@@H](NC(=O)OC(C)(C)C)c4ccccc4)C[C@@](O)([C@@H](OC(=O)c4ccccc4)[C@@H]4[C@]5(OC(C)=O)CO[C@@H]5C[C@H](O)[C@@]4(C)[C@@H]2O1)C3(C)C` (stereo not given in full), the values for the GI50 in the experiment with PC-6 [1] and in the experiment on PC-6 [2] were 0.365 ng/mL (≈ 0.43 nM) and 4.64 ng/mL (≈ 5.47 nM), respectively.

A word on the GI50: it is the concentration that inhibits growth by half. A higher GI50 goes with less potent growth inhibition.
